Test results from patent publication US7638540B2, “Benzofuran compound and medicinal composition containing the same” (The New Industry Research Organization, priority 2003, dated 2009).

Experiments:
human BLT2 = biological target: T1, human BLT2 (Homo sapiens, UniProt Q9NPC1); experiment: LTB4-induced increase in intracellular calcium ion concentration in CHO cells expressing human BLT2 (Fluo-3, Flexstation); type: cell-based; settings: compound 10 μM final, LTB4 100 nM final
T1 construct: expressed in transfected cells; host or cells: CHO cells
T1 sequence (Q9NPC1 1-358): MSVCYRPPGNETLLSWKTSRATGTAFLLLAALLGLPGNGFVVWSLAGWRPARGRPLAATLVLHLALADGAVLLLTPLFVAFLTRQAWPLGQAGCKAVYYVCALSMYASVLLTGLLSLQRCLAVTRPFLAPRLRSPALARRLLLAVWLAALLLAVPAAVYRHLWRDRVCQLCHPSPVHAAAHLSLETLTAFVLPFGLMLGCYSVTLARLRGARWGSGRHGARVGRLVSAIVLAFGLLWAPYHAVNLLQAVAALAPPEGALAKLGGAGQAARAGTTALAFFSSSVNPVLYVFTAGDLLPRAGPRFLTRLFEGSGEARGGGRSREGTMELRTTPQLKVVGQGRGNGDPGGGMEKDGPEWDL
Procedure: CHO cells habouring a gene encoding human BLT1 or human BLT2 and functionally expressing the receptor were seeded in a 96 well plate at 4×10^4 cells/well, and cultured at 37° C. for 60 min. The culture supernatant was removed and a loading buffer (100 μl) containing 4 μM Fluo-3 (manufactured by Dojindo), 0.04% pluoronic acid (manufactured by Sigma) and 1% serum was added. The mixture was culture at 37° C. for 30 min to introduce Fluo-3 into the cells. After culture, the cells were washed with a buffer, and a buffer containing various compounds (10 μM (final concentration)) was added, and then 100 nM (final concentration) of LTB4 was added. Changes in the intracellular calcium ion concentration were measured with Flexstation (manufactured by Molecular Devices Corporation) as increase in the fluorescence intensity (area under a curve in a time-course graph of fluorescence intensity in 10 min measurement). As a positive control of BLT1 and BLT2 antagonists, ZK158252 was used.

LTB4 receptor = experiment: TXB2 release from guinea pig eosinophils stimulated with LTB4 (LTB4 receptor antagonist activity); type: cell-based; settings: 10^−3 M test compound (37.5 μl) added to 300 μl cell suspension, then 10^−7 M LTB4 (37.5 μl), 37° C. 15 min, positive control 100, negative control 0, N.D. = TXB2 concentration at measurement limit or less
Procedure: The LTB4 receptor antagonist activity of the test compound was examined using, as an index, thromboxane B2 (TXB2) released when stimulating eosinophil of guinea pig with LTB4.
Based on the method described in Japanese Journal of Pharmacology, vol. 70, p. 337-345 (1996) etc., eosinophils of guinea pig were prepared. A cell suspension (300 μl, 1.25×10^6 cells/ml) was placed in a 5 ml polypropylene test tube and, after incubation at 37° C. for 5 min., 10^−3 M test compound (37.5 μl) dissolved in 0.1% DMSO aqueous solution was added and the cells were continuously cultured for 5 min. Then, 10^−7 M LTB4 (37.5 μl) was added to induce the reaction and the cells were incubated at 37° C. for 15 min. The reaction was quenched in ice water, and the culture was centrifuged at 4° C., 3000 rpm for 10 min. The obtained supernatant was prepared as a sample for TXB2 measurement, and preserved at −80° C. before use for the measurement. The quantitation of TXB2 was performed using a TXB2 enzyme immunoassay kit (manufactured by Cayman Chemical Company). The release ratio (%) of TXB2 from the eosinophils was determined by the following formula: release ratio (%) of TXB2=[(average value of test compound administration group−average value of negative control group)/(average value of positive control group−average value of negative control group)]×100
As used herein, the positive control group means a group to which stimulation with LTB4 was applied but the same volume of a medium was given instead of the test compound, and the negative control group means a group to which stimulation with LTB4 was not applied, the same volume of a medium was given instead of LTB4, and the same volume of a medium was given instead of the test compound. When the release ratio of TXB2 is smaller than 0, it means that the measured TXB2 concentration was lower than that of the negative control group. When the TXB2 concentration in the sample was the measurement limit or less, N.D. is indicated.

SMILES | melting point [°C] | Suppressive effect on increase in intracellular calcium ion concentration compared with ZK158252 (in words) (human BLT2) | Amount of TXB2 release (%) (LTB4 receptor)
CCOC(=O)CCCOc1cccc2cc(/C(C)=C/C(=O)N(CC)CC)oc12 [Example 224, Ethyl (E)-4-[2-(2-diethylcarbamoyl-1-methylvinyl)benzofuran-7-yloxy]butyrate] |  | almost of the same level as or not less than that by ZK158252 | 
CC(=O)c1cc2c(/C(C)=C/C(=O)N3CCOCC3)ccc(OC(C)c3ccccc3)c2o1 (stereo not shown) [Example 9, (E)-3-[2-acetyl-7-(1-phenylethoxy)benzofuran-4-yl]-1-morpholino-2-buten-1-one] | 173.9 to 175.4 |  | 0.68
COc1cccc(NC(=O)/C=C(\C)c2cc3cccc(OC(c4ccccc4)c4ccccc4)c3o2)c1 [Example 38, (E)-3-(7-benzhydryloxybenzofuran-2-yl)-N-(3-methoxyphenyl)-2-butenamide] | 167.2 to 168.2 |  | 91.73
COc1cccc(NC(=O)/C=C(\C)c2cc3c(S(=O)(=O)NCCc4ccc(OC)c(OC)c4)ccc(OCCCCl)c3o2)c1 [Example 51, (E)-3-{7-(3-chloropropoxy)-4-[2-(3,4-dimethoxyphenyl)ethylsulfamoyl]benzofuran-2-yl}-N-(3-methoxyphenyl)-2-butenamide] | 162.2 to 164.5 |  | 38.93
CC(=O)c1cc2c(/C(C)=C/C(=O)N3CCN(c4ccccc4)CC3)ccc(OC(c3ccccc3)c3ccccc3)c2o1 [Example 6, (E)-3-(2-acetyl-7-benzhydryloxybenzofuran-4-yl)-1-(4-phenylpiperazin-1-yl)-2-buten-1-one] | 152 to 160 |  | 38.93
CC(=O)c1cc2c(/C(C)=C/C(=O)N3CCN(c4ccccc4)CC3)ccc(OC(C)c3ccccc3)c2o1 (stereo not shown) [Example 5, (E)-3-[2-acetyl-7-(1-phenylethoxy)benzofuran-4-yl]-1-(4-phenylpiperazin-1-yl)-2-buten-1-one] | 79 to 84.6 |  | 81.6
COc1cccc2cc(C(C)NC(=O)/C=C/c3ccccc3)oc12 (stereo not shown) [Example 132, (E)-N-[1-(7-methoxybenzofuran-2-yl)ethyl]-3-phenylacrylamide] | 154.5 to 156.5 |  | 14.05
C/C=C/C(=O)Nc1c(C#N)oc2ccc(Br)cc12 [Example 117, (E)-N-(5-bromo-2-cyanobenzofuran-3-yl)-2-butenamide] | 206.5 to 208.2 |  | 54.95
CCN(CC)C(=O)/C=C(\C)c1cc2c(Br)ccc(OCCCC(=O)O)c2o1 [Example 36, (E)-4-[4-bromo-2-(2-diethylcarbamoyl-1-methylvinyl)benzofuran-7-yloxy]butyric acid] | 125.5 to 127 |  | −0.301
COc1ccc(CCNC(=O)/C=C/C=C(\Cl)c2cc3cccc(OC)c3o2)cc1OC [Example 56, (2E,4Z)-5-chloro-5-(7-methoxybenzofuran-2-yl)-penta-2,4-dienoic acid [2-(3,4-dimethoxyphenyl)ethyl]amide] | 151.4 to 153.3 |  | 52.39
CC(NC(=O)/C=C/c1ccccc1)c1cc2cccc(OCCCCl)c2o1 (stereo not shown) [Example 131, (E)-N-{1-[7-(3-chloropropoxy)benzofuran-2-yl]ethyl}-3-phenylacrylamide] | 132.2 to 139.7 |  | 2.14
COc1cccc(NC(=O)/C=C/C=C(\Cl)c2cc3cc(Br)ccc3o2)c1 [Example 54, (2E,4Z)-5-(5-bromobenzofuran-2-yl)-5-chloropenta-2,4-dienoic acid (3-methoxyphenyl)amide] | 204.3 to 207.1 |  | 60.6

The next lines start with results.

melting point [°C] | SMILES | Suppressive effect on increase in intracellular calcium ion concentration compared with ZK158252 (in words) (human BLT2) | Amount of TXB2 release (%) (LTB4 receptor)
161.3 to 162.1 | COc1ccc(CCNC(=O)/C=C/C=C(\Cl)c2cc3cc(Br)ccc3o2)cc1OC [Example 55, (2E,4Z)-5-(5-bromobenzofuran-2-yl)-5-chloropenta-2,4-dienoic acid [2-(3,4-dimethoxyphenyl)ethyl]amide] |  | 53.91
142 to 144.5 | COc1ccc2c(NC(=O)/C=C/c3ccccc3)c(C(C)=O)oc2c1 [Example 120, (E)-N-(2-acetyl-6-methoxybenzofuran-3-yl)-3-phenylacrylamide] |  | 1.32
96.2 to 98.5 | CCOC(=O)CCCOc1cccc2cc(/C(C)=C/C(=O)NCC(=O)OCC)oc12 [Example 40, Ethyl (E)-4-{2-[2-(ethoxycarbonylmethylcarbamoyl)-1-methylvinyl]benzofuran-7-yloxy}butyrate] |  | −0.18
169.3 to 171 | CCN(CC)C(=O)/C=C(\C)c1ccc2oc(C(C)=O)c(NC(=O)/C(C#N)=C(/C)O)c2c1 [Example 94, N-{2-acetyl-5-[(E)-2-diethylcarbamoyl-1-methylvinyl]benzofuran-3-yl}-2-cyano-3-hydroxy-(Z)-2-butenamide] |  | −0.1
143.2 to 145.6 | C/C=C/C(=O)Nc1c(C(=O)OCC)oc2ccccc12 [Example 118, Ethyl (E)-3-methyl-acryloylaminobenzofurane-2-carboxylate] |  | 73.84
189 to 193 | CCOC(=O)c1ccc(OC)c(NC(=O)/C=C(\C)c2ccc3oc(C(C)=O)c(N)c3c2)c1 [Example 16, Ethyl (E)-3-[3-(2-acetyl-3-aminobenzofuran-5-yl)-2-butenoylamino]-4-methoxybenzoate] |  | 56.57
168 to 173 | COc1ccc(CCNC(=O)/C=C(\C)c2ccc3oc(C(C)=O)c(N)c3c2)cc1OC [Example 17, (E)-3-(2-acetyl-3-aminobenzofuran-5-yl)-N-[2-(3,4-dimethoxyphenyl)ethyl]-2-butenamide] |  | 27.92
70.8 to 73 | CCN(CC)C(=O)/C=C(\C)c1ccc(OC(C)c2ccccc2)c2oc(C(C)=O)cc12 (stereo not shown) [Example 1, (E)-3-[2-acetyl-7-(1-phenylethoxy)benzofuran-4-yl]-N,N-diethyl-2-butenamide] |  | 0.42
144 to 148.3 | CC(=O)c1oc2ccc(/C(C)=C/C(=O)N3CCN(Cc4ccccc4)CC3)cc2c1N [Example 19, (E)-3-(2-acetyl-3-aminobenzofuran-5-yl)-1-(4-benzylpiperazin-1-yl)-2-buten-1-one] |  | 48.63
162.4 to 163.8 | CCOC(=O)c1oc2ccccc2c1NC(=O)/C=C/c1ccccc1 [Example 119, Ethyl (E)-3-(3-phenylacryloylamino)benzofurane-2-carboxylate] |  | 9.8
